Columns and labels:
[1] = tested on: EAE (PLP 139-151 challenge); assay: PLP induced experimental allergic encephalomyelitis (EAE) in SJL mice; type: in vivo; parameters: key to Mean maximal score / Mean score (group mean score): clinical score 0 = no signs to 6 = death; settings: for effect on EAE, in words: 50 mg/kg/day po
Experimental: Female SJL mice (12 weeks) were inoculated with the encephalitogenic peptide of proteolipid protein (PLP 139-151) synthesized to a purity of 70% by Sigma (Israel). 150 μg of the peptide were emulsified in complete Freund's adjuvant (CFA) (Difco laboratories), supplemented with killed mycobacteria (5 mg/ml) and pertussis toxin (200 ng) (Sigma), given subcutaneously at day of inoculation only.
Mice were kept SPF conditions and given water and food ad libitum. Mice were daily observed for clinical signs from day 10 to day 18-21 post inoculation.
The clinical score used is as follows: 0—no clinical signs; 0.5—loss of right reflex; 1—distal limp tail; 2—complete limp tail; 3—ataxia; 4—early paralysis (one hind limb); 5—complete hind legs paralysis and moribund state; 6—death.
Compounds were dissolved in 2-hydroxypropyl beta cyclodextrin (40% water solution). Treatment started at day 1 post inoculation. The compounds (50 mg/kg) and vehicle were given orally by gavage every day until day 20 post inoculation.
Compounds 6 and 7 were given orally to mice challenged with PLP, at a dose of 50 mg/kg/day, p.o. The results are presented in Table 3a and in FIGS. 2 and 3. The effect of Compound 6 on all parameters of the disease was more pronounced as compared to the control group.

[2] = tested on: human red blood cells; assay: Hypochlorite (HOCl) hemolysis of human red blood cells; type: cell-based; settings: activity compared to ascorbic acid
Experimental: Hypochlorite (HOCl) hemolysis of human red blood cells. The reaction is based on the ability of O2 radicals to lyse red blood cells. Antioxidant compounds such as ascorbic acid and 4-hydroxy-2,2,6,6-tetramethyl-piperidine-1-oxyl (TEMPOL) prevent membrane damage in a dose dependent manner. All compounds were dissolved at a concentration of 5 mg/ml and aliquots were tested for their ability to prevent lysis.

[3] = Oxidation potential by cyclic voltametry; type: physicochemical; settings: for oxidation potential (cyclic voltametry), in words: pH 7.2
Experimental: (§1) Reaction with 1,1-diphenyl-2-picrylhydrazyl (DPPNH) is indicative of radical scavenging ability. The compounds were mixed with DPPNH (in equimolar amounts) and the consumption rate of DPPNH was measured. Compounds 3 and 4 reacted instantaneously, consuming 70% and 20% of DPPNH respectively (Table 2). The oxidation potential of the compounds was measured by cyclic voltametry.

[4] = Reaction with 1,1-diphenyl-2-picrylhydrazyl (DPPNH), radical scavenging; type: physicochemical; settings: equimolar amounts; for DPPNH: radical scavenging, grades 0 to +++, key not given; for DPPNH consumed: reacted instantaneously
Experimental: as §1

[5] = tested on: neutrophils; assay: PMA-induced oxidative burst in neutrophils (DCFH, FACS); type: cell-based; settings: PMA 10 ng/ml 30 min, compared to ascorbic acid
Experimental: PMA-induced oxidative burst in neutrophils: The cells were activated with PMA (10 ng/ml) for 30 min and incubated with 2,7-dichlorodihydrofluorescin diacetate (DCFH), which, in the presence of O2 radicals and peroxynitrites, is converted to a fluorescent compound. The fluorescent cells are detected in a cell sorter (FACS).

[6] = Chemical chemiluminescence (without cells): Luminol+SIN-1+selenite+BSA; parameters: concentration or dose not given beside the values; settings: compared to ascorbic acid
Excerpt: Luminescence was generated in vials containing the following compounds: Luminol+SIN-1(generator of NO radicals)+selenite+BSA. This reaction is inhibited by scavengers of peroxynitrites, as well as scavengers of NO and O2 free radicals.

[7] = tested on: EAE (MSCH emulsion induction); assay: EAE in CSJL mice, acute model (MSCH/CFA induction); type: in vivo; settings: for Mortality / Incidence: 30 days, CSJL mice; for Mean Duration: duration of disease; for % inhibition 3: inhibition of GMS vs control; for % inhibition 2: inhibition of MMS vs control; for % inhibition 1: inhibition of incidence vs control; for GMS value: mean group score; for MMS value: mean maximal score
[8] = tested on: EAE (PLP 139-151 challenge); assay: PLP induced experimental allergic encephalomyelitis (EAE) in SJL mice; type: in vivo; settings: single dose daily, po
[9] = tested on: EAE; assay: Treatment of EAE with TEMPOL (FIG. 1); type: in vivo, mice; settings: Tempol 100 mg and 200 mg groups
Excerpt: The dosage of TEMPOL used here was […] higher than the dosages of compounds 6 and 7 below. The experiments were terminated arbitrarily at day 18 post-immunization. The course of EAE in different groups of animals varies. Consequently, recovery time is variable, typically by two or three days.

[10] = Table 3b: 50 mg/kg, single dose daily, po
[11] = Table 3b: 50 mg/kg, single dose daily, po, only mice that develop disease
[12] = Table 3a: 50 mg/kg/day po, PLP challenge, mean ± SEM
[13] = Table 3a: 50 mg/kg/day po, single dose daily, PLP challenge
[14] = 25.0 mg/kg × 2 per day (single dose on weekends), oral
[15] = Table 3b: 12.5 mg/kg, single dose daily, po
[16] = Table 3b: 100 mg/kg, single dose daily, po

Nc1cc(=O)[nH]c(=O)n1C1CCc2ccccc21 (centres unmarked) [Compound 1, 6-amino-1-indan-1-yl-1H-pyrimidine-2,4-dione]
Incidence [1, 10]: 6/8
Mean disease duration [1, 10]: 5.57 ± 1.72
Mean maximal score [1, 10]: 4.2
Mean score [1, 10]: 3.4 ± 0.2
Mean day of onset [1, 11]: 12.5 ± 0.7
HOCl % lysis [2]: 75%
oxidation potential (cyclic voltametry), in words [3]: reducing action, but to a lesser extent than compound 3
DPPNH [4]: 0
PMA % of cells activated [5]: 0%
% Chemiluminescence inhibition [6]: 0%

CN(C)c1ccc2c(c1)C(Nc1cc(=O)[nH]c(=O)[nH]1)CC2.Cl (centres unmarked) [Compound 7, 6-(6-dimethylamino-indan-1-ylamino)-1H-pyrimidine-2,4-dione HCl]
effect on EAE, in words ([1]; PLP challenge): significant beneficial effect on EAE
Mean day of onset [1, 12]: 14.8 ± 0.94
Mean disease duration [1, 12]: 4.1 ± 0.84
Mean maximal score [1, 12]: 4.3 ± 0.9
Mean score (group mean score) [1, 12]: 1.6 ± 0.27
(# dead) [1, 13]: (4)
Incidence [1, 13]: 11/14
HOCl % lysis [2]: 55%
Mortality [7, 14]: 8/10
Incidence ([7]; 25.0 mg/kg × 2 per day, oral): 8/10
Incidence ([7]; 50.0 mg/kg once a day, oral): 7/10
Mortality ([7]; 50.0 mg/kg once a day, oral): 7/10
Mean Duration ([7]; 25.0 mg/kg × 2, oral): 13.9 ± 7.5 days
Mean Duration ([7]; 50.0 mg/kg once a day, oral): 12.7 ± 8.8 days
% inhibition 3 ([7]; 25.0 mg/kg × 2, oral): 9.4%
% inhibition 3 ([7]; 50.0 mg/kg once a day, oral): 15.6%
% inhibition 2 ([7]; 25.0 mg/kg × 2, oral): 2.4%
% inhibition 2 ([7]; 50.0 mg/kg once a day, oral): 14.6%
% inhibition 1 ([7]; 25.0 mg/kg × 2, oral): 20.0%
% inhibition 1 ([7]; 50.0 mg/kg once a day, oral): 30.0%
GMS value ([7]; 25.0 mg/kg × 2, oral): 2.9 ± 1.6
GMS value ([7]; 50.0 mg/kg once a day, oral): 2.7 ± 1.9
MMS value ([7]; 25.0 mg/kg × 2, oral): 4.0 ± 2.1
MMS value ([7]; 50.0 mg/kg once a day, oral): 3.5 ± 2.4
% Chemiluminescence inhibition [6]: 62%

O=C1O[C@H]([C@@H](O)CO)C(O)=C1O [Ascorbic acid, reference compound]
HOCl % lysis [2]: 100%
PMA % of cells activated [5]: 100%
% Chemiluminescence inhibition [6]: 100%

O=c1cc(NC2CCc3ccccc32)[nH]c(=O)[nH]1 (centres unmarked) [Compound 5, 6-(indan-1-ylamino)-1H-pyrimidine-2,4-dione]
Incidence [1, 15]: 18/18
Mean maximal score [1, 15]: 4.5
Incidence [1, 10]: 14/16
Mean disease duration [1, 10]: 5.64 ± 1.55
Mean maximal score [1, 10]: 5
Mean score [1, 10]: 3.48 ± 0.3
Mean day of onset [1, 11]: 12.9 ± 1.35
Incidence [1, 16]: 5/5
Mean maximal score [1, 16]: 5
Mean score [1, 16]: 3.2 ± 0.25
Mean day of onset ([1]; Table 3b:, single dose daily, po, only mice that develop disease): 11.8 ± 1.1
HOCl % lysis [2]: 100%
oxidation potential (cyclic voltametry), in words [3]: reducing action, but to a lesser extent than compound 3
DPPNH [4]: 0
Mean disease duration ([8]; Table 3b: 12.5 mg/kg): 6.06 ± 1.7
Mean score ([8]; Table 3b: 12.5 mg/kg): 3.8 ± 0.35
Mean day of onset ([8]; Table 3b: 12.5 mg/kg, only mice that develop disease): 12 ± 0.68
Mean disease duration ([8]; Table 3b: 100 mg/kg): 4.4 ± 1.7
PMA % of cells activated [5]: 80%
% Chemiluminescence inhibition [6]: 75%

CC1(C)CC(O)CC(C)(C)N1O [N-Hydroxy-tetramethyl-4-piperidinol, reference compound]
HOCl % lysis [2]: 52%
PMA % of cells activated [5]: 60%
% Chemiluminescence inhibition [6]: 42%

CC1(C)CC(O)CC(C)(C)N1[O] [4-hydroxy-2,2,6,6-tetramethyl-piperidine-1-oxyl, reference compound]
HOCl % lysis [2]: 50%
manifestation of clinical signs of EAE, in words [9]: has the ability to inhibit the manifestation of clinical signs of EAE
PMA % of cells activated [5]: 80%
% Chemiluminescence inhibition [6]: 78%

Nc1c(NC2CCc3ccccc32)[nH]c(=O)[nH]c1=O (centres unmarked) [Compound 4, 5-amino-6-(indan-1-ylamino)-1H-pyrimidine-2,4-dione]
Cyclic voltametry - AW ([3]; anodic wave, grades 0 to +++, key not given): 0
DPPNH consumed [4]: 20%
melting point: > 150 °C

Nc1c(N)n(C2CCc3ccccc32)c(=O)[nH]c1=O (centres unmarked) [Compound 3, 5,6-diamino-1-indan-1-yl-1H-pyrimidine-2,4-dione]
HOCl % lysis [2]: 72%
oxidation potential (cyclic voltametry), in words [3]: strong electron donor activity
DPPNH consumed [4]: 70%
melting point: 218 °C (dec.)
PMA % of cells activated [5]: 30%
% Chemiluminescence inhibition [6]: 38%

CN(C)c1cccc2c1CCC2Nc1cc(=O)[nH]c(=O)[nH]1.Cl (centres unmarked) [Compound 6, 6-(4-dimethylamino-indan-1-ylamino)-1H-pyrimidine-2,4-dione HCl]
effect on EAE, in words ([1]; PLP challenge): significant beneficial effect on EAE
(# dead) [1, 13]: (4)
Incidence [1, 13]: 10/14
HOCl % lysis [2]: 44%
Mortality [7, 14]: 4/10
Incidence ([7]; 25.0 mg/kg × 2 per day, oral): 7/10
Incidence ([7]; 50.0 mg/kg once a day, oral): 7/10
Mortality ([7]; 50.0 mg/kg once a day, oral): 5/10
Mean Duration ([7]; 25.0 mg/kg × 2, oral): 11.1 ± 8.6 days
Mean Duration ([7]; 50.0 mg/kg once a day, oral): 11.3 ± 8.5 days
% inhibition 3 ([7]; 25.0 mg/kg × 2, oral): 40.6%
% inhibition 3 ([7]; 50.0 mg/kg once a day, oral): 31.3%
% inhibition 2 ([7]; 25.0 mg/kg × 2, oral): 34.1%
% inhibition 2 ([7]; 50.0 mg/kg once a day, oral): 26.8%
% inhibition 1 ([7]; 25.0 mg/kg × 2, oral): 30.0%
% inhibition 1 ([7]; 50.0 mg/kg once a day, oral): 30.0%
GMS value ([7]; 25.0 mg/kg × 2, oral): 1.9 ± 1.9
GMS value ([7]; 50.0 mg/kg once a day, oral): 2.2 ± 1.8
MMS value ([7]; 25.0 mg/kg × 2, oral): 2.7 ± 2.2
MMS value ([7]; 50.0 mg/kg once a day, oral): 3.0 ± 2.3
% Chemiluminescence inhibition [6]: 56%

CC1(C)CC(O)CC(C)(C)N1 [Tetramethyl-4-piperidinol, reference compound]
HOCl % lysis [2]: 0%
PMA % of cells activated [5]: 30%
% Chemiluminescence inhibition [6]: 1.2%

— patent publication US20070021450A1, “Indanylamino uracils and their use as antioxidants and neuroprotectants” (priority 2004, published 2007)
